Assay results taken from patent US8580794B2 (AbbVie Inc., priority 2009, dated 2013).

Molecular target: GST-Bc1-2 (Homo sapiens, UniProt P10415)
Assay: Time Resolved-Fluorescence Resonance Energy Transfer (TR-FRET) Bcl-2 binding assay with F-Bak peptide probe
Details: GST-Bcl-2 1 nM, F-Bak probe 100 nM, Tb-anti-GST 1 nM; '<' = below limit of detection; read-out: TR-FRET Bcl-2 Binding Ki

Sequence of GST-Bc1-2 (P10415 whole entry): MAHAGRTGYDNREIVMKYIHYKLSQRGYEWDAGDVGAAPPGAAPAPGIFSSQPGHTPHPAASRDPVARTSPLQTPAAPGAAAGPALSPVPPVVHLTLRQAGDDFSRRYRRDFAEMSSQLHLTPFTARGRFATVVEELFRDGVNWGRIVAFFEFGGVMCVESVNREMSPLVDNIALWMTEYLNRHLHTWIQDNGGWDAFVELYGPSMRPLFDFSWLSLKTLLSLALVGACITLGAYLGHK

| Compound | Ki [nM] |
| --- | --- |
| CC1(C)CCC(CN2CCN(c3ccc(C(=O)NS(=O)(=O)c4ccc(N[C@H]5CCN(C6CCOC(C)(C)C6)C5)c([N+](=O)[O-])c4)c(Oc4cnc5[nH]ccc5c4)c3)CC2)=C(c2ccc(Cl)cc2)C1 (stereo partly drawn) [Example 133, 4-(4-{[2-(4-chlorophenyl)-4,4-dimethylcyclohex-1-en-1-yl]methyl}piperazin-1-yl)-N-[(4-{[(3S)-1-(2,2-dimethyltetrahydro-2H-pyran-4-yl)pyrrolidin-3-yl]amino}-3-nitrophenyl)sulfonyl]-2-(1H-pyrrolo[2,3-b]pyridin-5-yloxy)benzamide] | < 0.01 |
| CN1CCOC(CNc2ccc(S(=O)(=O)NC(=O)c3ccc(N4CCN(CC5=C(c6ccc(Cl)cc6)CC(C)(C)CC5)CC4)cc3Oc3cnc4[nH]ccc4c3)cc2[N+](=O)[O-])C1 (stereo not shown) [Example 134, 4-(4-{[2-(4-chlorophenyl)-4,4-dimethylcyclohex-1-en-1-yl]methyl}piperazin-1-yl)-N-[(4-{[(4-methylmorpholin-2-yl)methyl]amino}-3-nitrophenyl)sulfonyl]-2-(1H-pyrrolo[2,3-b]pyridin-5-yloxy)benzamide] | < 0.01 |
| COCCN1CCOC(CNc2ccc(S(=O)(=O)NC(=O)c3ccc(N4CCN(CC5=C(c6ccc(Cl)cc6)CC(C)(C)CC5)CC4)cc3Oc3cnc4[nH]ccc4c3)cc2[N+](=O)[O-])C1 (stereo not shown) [Example 135, 4-(4-{[2-(4-chlorophenyl)-4,4-dimethylcyclohex-1-en-1-yl]methyl}piperazin-1-yl)-N-{[4-({[4-(2-methoxyethyl)morpholin-2-yl]methyl}amino)-3-nitrophenyl]sulfonyl}-2-(1H-pyrrolo[2,3-b]pyridin-5-yloxy)benzamide] | < 0.01 |
| CC(=O)N1CCOC(CNc2ccc(S(=O)(=O)NC(=O)c3ccc(N4CCN(CC5=C(c6ccc(Cl)cc6)CC(C)(C)CC5)CC4)cc3Oc3cnc4[nH]ccc4c3)cc2[N+](=O)[O-])C1 (stereo not shown) [Example 136, N-[(4-{[(4-acetylmorpholin-2-yl)methyl]amino}-3-nitrophenyl)sulfonyl]-4-(4-{[2-(4-chlorophenyl)-4,4-dimethylcyclohex-1-en-1-yl]methyl}piperazin-1-yl)-2-(1H-pyrrolo[2,3-b]pyridin-5-yloxy)benzamide] | < 0.01 |
| CC1(C)CCC(CN2CCN(c3ccc(C(=O)NS(=O)(=O)c4ccc(NCC5(F)CCOCC5)c([N+](=O)[O-])c4)c(Oc4cnc5[nH]ccc5c4)c3)CC2)=C(c2ccc(Cl)cc2)C1 [Example 138, 4-(4-{[2-(4-chlorophenyl)-4,4-dimethylcyclohex-1-en-1-yl]methyl}piperazin-1-yl)-N-[(4-{[(4-fluorotetrahydro-2H-pyran-4-yl)methyl]amino}-3-nitrophenyl)sulfonyl]-2-(1H-pyrrolo[2,3-b]pyridin-5-yloxy)benzamide] | < 0.01 |
| CC1(C)CCC(CN2CCN(c3ccc(C(=O)NS(=O)(=O)c4ccc(NC5CCN(C6COC6)CC5)c([N+](=O)[O-])c4)c(Oc4cnc5[nH]ccc5c4)c3)CC2)=C(c2ccc(Cl)cc2)C1 [Example 139, 4-(4-{[2-(4-chlorophenyl)-4,4-dimethylcyclohex-1-en-1-yl]methyl}piperazin-1-yl)-N-({3-nitro-4-[(1-oxetan-3-ylpiperidin-4-yl)amino]phenyl}sulfonyl)-2-(1H-pyrrolo[2,3-b]pyridin-5-yloxy)benzamide] | < 0.01 |
| CC1(C)CCC(CN2CCN(c3ccc(C(=O)NS(=O)(=O)c4ccc(NC5CCN(C6CCC6)CC5)c([N+](=O)[O-])c4)c(Oc4cnc5[nH]ccc5c4)c3)CC2)=C(c2ccc(Cl)cc2)C1 [Example 140, 4-(4-{[2-(4-chlorophenyl)-4,4-dimethylcyclohex-1-en-1-yl]methyl}piperazin-1-yl)-N-({4-[(1-cyclobutylpiperidin-4-yl)amino]-3-nitrophenyl}sulfonyl)-2-(1H-pyrrolo[2,3-b]pyridin-5-yloxy)benzamide] | < 0.01 |
| CC1(C)CCC(CN2CCN(c3ccc(C(=O)NS(=O)(=O)c4ccc(NC5CCN(C6CCOC(C)(C)C6)CC5)c([N+](=O)[O-])c4)c(Oc4cnc5[nH]ccc5c4)c3)CC2)=C(c2ccc(Cl)cc2)C1 (stereo not shown) [Example 141, 4-(4-{[2-(4-chlorophenyl)-4,4-dimethylcyclohex-1-en-1-yl]methyl}piperazin-1-yl)-N-[(4-{[1-(2,2-dimethyltetrahydro-2H-pyran-4-yl)piperidin-4-yl]amino}-3-nitrophenyl)sulfonyl]-2-(1H-pyrrolo[2,3-b]pyridin-5-yloxy)benzamide] | < 0.01 |
| CC1(C)CCC(CN2CCN(c3ccc(C(=O)NS(=O)(=O)c4ccc(N[C@H]5CCN(C6CC6)C5)c([N+](=O)[O-])c4)c(Oc4cnc5[nH]ccc5c4)c3)CC2)=C(c2ccc(Cl)cc2)C1 [Example 142, 4-(4-{[2-(4-chlorophenyl)-4,4-dimethylcyclohex-1-en-1-yl]methyl}piperazin-1-yl)-N-[(4-{[(3S)-1-cyclopropylpyrrolidin-3-yl]amino}-3-nitrophenyl)sulfonyl]-2-(1H-pyrrolo[2,3-b]pyridin-5-yloxy)benzamide] | 0.13 |
| CC1(C)CCC(CN2CCN(c3ccc(C(=O)NS(=O)(=O)c4ccc(NC5CCN(C6CCOC6)CC5)c([N+](=O)[O-])c4)c(Oc4cnc5[nH]ccc5c4)c3)CC2)=C(c2ccc(Cl)cc2)C1 (stereo not shown) [Example 143, 4-(4-{[2-(4-chlorophenyl)-4,4-dimethylcyclohex-1-en-1-yl]methyl}piperazin-1-yl)-N-({3-nitro-4-[(1-tetrahydrofuran-3-ylpiperidin-4-yl)amino]phenyl}sulfonyl)-2-(1H-pyrrolo[2,3-b]pyridin-5-yloxy)benzamide] | < 0.01 |
| CC1(C)CCC(CN2CCN(c3ccc(C(=O)NS(=O)(=O)c4ccc(N[C@@H]5CCN(C6CC6)C5)c([N+](=O)[O-])c4)c(Oc4cnc5[nH]ccc5c4)c3)CC2)=C(c2ccc(Cl)cc2)C1 [Example 144, 4-(4-{[2-(4-chlorophenyl)-4,4-dimethylcyclohex-1-en-1-yl]methyl}piperazin-1-yl)-N-[(4-{[(3R)-1-cyclopropylpyrrolidin-3-yl]amino}-3-nitrophenyl)sulfonyl]-2-(1H-pyrrolo[2,3-b]pyridin-5-yloxy)benzamide] | < 0.01 |
| CC1(C)CCC(CN2CCN(c3ccc(C(=O)NS(=O)(=O)c4ccc(NC[C@@H]5CCN(C6CCOCC6)C5)c([N+](=O)[O-])c4)c(Oc4cnc5[nH]ccc5c4)c3)CC2)=C(c2ccc(Cl)cc2)C1 [Example 145, 4-(4-{[2-(4-chlorophenyl)-4,4-dimethylcyclohex-1-en-1-yl]methyl}piperazin-1-yl)-N-{[3-nitro-4-({[(3S)-1-tetrahydro-2H-pyran-4-ylpyrrolidin-3-yl]methyl}amino)phenyl]sulfonyl}-2-(1H-pyrrolo[2,3-b]pyridin-5-yloxy)benzamide] | < 0.01 |
| CC(C)(CO)CNc1ccc(S(=O)(=O)NC(=O)c2ccc(N3CCN(CC4=C(c5ccc(Cl)cc5)CC(C)(C)CC4)CC3)cc2Oc2cnc3[nH]ccc3c2)cc1[N+](=O)[O-] [Example 146, 4-(4-{[2-(4-chlorophenyl)-4,4-dimethylcyclohex-1-en-1-yl]methyl}piperazin-1-yl)-N-({4-[(3-hydroxy-2,2-dimethylpropyl)amino]-3-nitrophenyl}sulfonyl)-2-(1H-pyrrolo[2,3-b]pyridin-5-yloxy)benzamide] | < 0.01 |
